Experimental data reported in article PMC8952214 (Pharmaceuticals, 2022).
pEC50: −log10 of the molar value. Read-outs that look alike come from different tables or passages of the source.

Experiments:
[1] = test system: A/Parma/24/09 H1N1 (Brisbane-like) oseltamivir-resistant virus; conditions: Table 1; turkey erythrocytes; cited from earlier work
[2] = test system: A/Parma/24/09 H1N1 (Brisbane-like) oseltamivir-resistant virus; conditions: MDCK cells, c.p.e. by neutral red, 48 h; cited from earlier work
[3] = test system: A/Parma/24/09 H1N1 (Brisbane-like) oseltamivir-resistant virus; format: biochemical, Influenza A virus; conditions: Table 2; turkey erythrocytes; dash = not active
[4] = test system: A/Parma/24/09 H1N1 (Brisbane-like) oseltamivir-resistant virus; assay: microbe, parasite or virus in culture; format: cell-based, Influenza A virus; conditions: for pEC50: Influenza A virus, H1N1, MDCK, 48 h, read-out: EC50 A/Parma H1N1

Compound	HI Titer A/Parma H1N1 [3]	other results
Cc1ccc(S(=O)(=O)NC(C)c2ccc(-n3ccnc3)cc2)cc1C (stereo not shown) [Compound 1]		HI Titer A/Parma H1N1 [1]: 0.48 µM; pEC50 [2]: 6.90
Fc1ccc(CNc2ncnc3[nH]cnc23)cc1 [Compound 2]		HI Titer A/Parma H1N1 [1]: 0.48 µM
COc1ccc(C(=O)Nc2cccc(S(=O)(=O)NCc3ccco3)c2)cc1 [Compound 3]		HI Titer A/Parma H1N1 [1]: 0.48 µM
Cc1ccc(F)cc1NC(=O)COC(=O)c1ccc2ccccc2n1 [Compound 4]		HI Titer A/Parma H1N1 [1]: 0.48 µM; pEC50 [2]: 6.90
Cc1ccc2nc(CNc3ccc(C)c(Cl)c3)cc(=O)n2c1 [Compound 5]		HI Titer A/Parma H1N1 [1]: 0.48 µM
O=C(CC1(O)C(=O)Nc2ccccc21)c1ccccn1 (stereo not shown) [Compound 6]	0.012 pM	SI (selectivity index) = CC50/EC50, A/Parma H1N1 [4]: 0.34 × 10^2; pEC50 [4]: 6.05
N#Cc1ccc(NC(=O)COC(=O)c2ccccn2)cc1 [Compound 7]	0.012 pM	SI (selectivity index) = CC50/EC50, A/Parma H1N1 [4]: 0.34 × 10^2; pEC50 [4]: 6.05
O=C(OCC(=O)N1CCc2ccccc21)c1ccccn1 [Compound 8]	0.012 pM	
CN(C(=O)COC(=O)c1ccc2ccccc2n1)c1ccccc1 [Compound 9]	0.012 pM	
CCc1ccc(NC(=O)C(C)OC(=O)c2ccc3ccccc3n2)cc1 (stereo not shown) [Compound 10]	0.012 pM	
O=C(COC(=O)c1ccc2ccccc2n1)Nc1ccc2c(c1)OCCO2 [Compound 11]	0.012 pM	
O=C(COC(=O)c1ccc2ccccc2n1)Nc1ccccc1-c1ccccc1 [Compound 12]	0.012 pM	
Cc1ccc(NC(=O)COC(=O)c2ccccn2)cc1F [Compound 13]	0.012 pM	SI (selectivity index) = CC50/EC50, A/Parma H1N1 [4]: 0.44 × 10^2; pEC50 [4]: 6.15
O=C(OCC(=O)N(c1ccccc1)C1CCCCC1)c1ccc2ccccc2n1 [Compound 14]	0.012 pM	
CC(=O)Nc1ccc(S(=O)(=O)NC(C)c2ccc(-n3ccnc3)cc2)cc1 (stereo not shown) [Compound 16]	0.012 pM	
CC(NS(=O)(=O)c1ccccc1)c1ccc(-c2ccccc2)cc1 (stereo not shown) [Compound 17]	0.012 pM	
Nc1cc(F)ccc1C(=O)OCC(=O)Nc1ccccc1 [Compound 18]	0.012 pM	
COc1ccc(NC(=O)COC(=O)c2ccc3c(c2)CCC(=O)N3)cc1 [Compound 19]	0.012 pM	
O=C(COC(=O)c1ccccn1)Nc1ccc(-c2ccccc2)cc1 [Compound 20]	0.012 pM	
O=C1CCCN1c1ccc(CNS(=O)(=O)c2ccc(F)cc2)cc1 [Compound 23]	0.012 pM	
O=C(COC(=O)c1ccccn1)Nc1ccc2c(c1)CCC2 [Compound 24]	0.047 pM	
COc1ccc(S(=O)(=O)NCc2ccc(-n3ccnc3)cc2)cc1F [Compound 25]	0.012 pM	SI (selectivity index) = CC50/EC50, A/Parma H1N1 [4]: 0.44 × 10^2; pEC50 [4]: 6.15
Cc1nc(-c2cccc(NC(=O)COC(=O)c3ccc4ccccc4n3)c2)cs1 [Compound 26]	0.047 pM	
Cc1ccc(S(=O)(=O)Nc2ccc(-n3ccnc3)c(Cl)c2)cc1 [Compound 28]	0.047 pM	
